According to patent publication US20230127559A1, “PEPTIDE ANALOGS AND USE OF SAME IN TREATING DISEASES, DISORDERS OR CONDITIONS ASSOCIATED WITH MUTANT P53 PROTEIN” (YEDA RESEARCH AND DEVELOPMENT CO. LTD., priority 2020, published 2023):
Like-named read-outs stand apart in the source and are kept apart here. Where a SMILES comes first, the peptide text is derived from it. Bridges are numbered along the chain shown (N, C = ends). [ ]: non-standard residue; d: D form. The star is where a group is joined. Docosanoyl = CCCCCCCCCCCCCCCCCCCCCC(=O)*; Oic = O=C(O)[C@@H]1C[C@@H]2CCCC[C@@H]2N1; Arachidoyl = CCCCCCCCCCCCCCCCCCCC(=O)*; Stearoyl = CCCCCCCCCCCCCCCCCC(=O)*; Palmitoyl = CCCCCCCCCCCCCCCC(=O)*; Tic = O=C(O)[C@@H]1Cc2ccccc2CN1; dTic = O=C(O)[C@H]1Cc2ccccc2CN1; Dab = NCC[C@H](N)C(=O)O

Tests used:
[1] = tested on: MIA PaCa-2 (pancreatic carcinoma) cells, p53R248W; assay type: cell-based; settings: 48 h
Description: (§1) Cells were cultured in 96 wells plates with 2500-4000 cells/well. Serial dilutions of different peptides were added and the plates incubated for additional 48 h at 37° C. Then medium was removed and cell viability was determined by staining the cells with crystal violet (0.05%) in methanol/PBS (1:5, v/v), for 10 min, followed by 3 washes with PBS. 10% acetic acid was added to each well for 10 min. OD was determined at 595 nm.
(§2) The IC50 tables presented in FIGS. 17-20 are from several representative experiments performed on cell lines expressing several p53 hotspot mutations, as well as control non-transformed cells: […]

[2] = tested on: WI38 (non-transformed fibroblasts) cells, wtp53; assay type: cell-based; settings: 48 h
Description: as §1, §2

[3] = tested on: SW-480 (colon carcinoma) cells, p53R273H, P309S; assay type: cell-based; settings: 48 h
Description: as §1, §2

[4] = tested on: PC9 (lung carcinoma) cells, p53R248Q; assay type: cell-based; settings: 48 h
Description: as §1, §2

[5] = tested on: RXF-393 (renal carcinoma) cells, p53R175H; assay type: cell-based, human; settings: for increase in efficacy relative to pCAP-553: FIG. 17, effect of fatty acid length; for IC50: 48 h
Description: as §1
(§3) The IC50 tables presented in FIGS. 17-20 are from several representative experiments performed on cell lines expressing several p53 hotspot mutations, as well as control non-transformed cells:
Fatty acid position. Lead peptides were modified with N-terminal myristic acid to enable the penetration of peptides across the cell membrane. Although myristic acid is usually the default choice for cell permeability, additional options were explored of longer fatty acids and to examine the effect on peptide efficacy in terms of cancer cell killing. A standard crystal violet viability test was performed on human renal carcinoma RXF-393 cells, comparing the original pCAP-553, which has myristic acid (C14), with 4 derivative peptides modified with longer fatty acid chains: palmitic (C16), stearic (C18), […] (C20) and behenic (C22).

[6] = tested on: panel of cell lines expressing mutp53; assay type: cell-based; settings: for IC50: 48 h
Description: as §1, §3
Proline residue position—Based on alanine scanning and molecular dynamics analyses, it is believed that the proline residue at the 6th position from the N-terminal is critical for the peptide's 3D structure and provides some rigidity required for peptide binding and activity. Therefore, it was hypothesized that a change in orientation or tetrahedral angle might increase the affinity of the peptide for p53. Six new peptides were synthesized replacing this proline residue with proline analogs (pCAPs 708-712, and pCAP-716, SEQ ID NOS: 6-10 and 14, respectively). This set of peptides was tested for activity on a panel of cell lines expressing mutp53, and compared it to pCAP-674 (SEQ ID NO: 27) and to the scrambled sequence peptides pCAP-721 (SEQ ID NO: 19) and pCAP-722 (SEQ ID NO: 20).

[7] = tested on: PANC1 (pancreatic carcinoma) cells, p53R273H; assay type: cell-based; settings: 48 h
Description: as §1, §2

| Compound | IC50 [1] [nM] | IC50 [2] [nM] | IC50 [3] [nM] | IC50 [4] [nM] | IC50 [5] [nM] | further results |
| --- | --- | --- | --- | --- | --- | --- |
| CCCCCCCCCCCCCC(=O)N[C@@H](CCCNC(=N)N)C(=O)N[C@@H](CCCNC(=N)N)C(=O)N[C@@H](Cc1c[nH]cn1)C(=O)N[C@@H](CO)C(=O)N[C@H](C(=O)N1CCC[C@H]1C(=O)N[C@@H](Cc1c[nH]cn1)C(=O)N1CCC[C@H]1C(=O)N[C@@H](CC(=O)O)C(=O)O)[C@@H](C)O [pCAP-250, myr-RRHSTPHPD] | 1000 | > 40000 |  |  |  |  |
| CCCCCCCCCCCCCCCCCC(=O)N[C@@H](CCCNC(=N)N)C(=O)N[C@@H](CCCNC(=N)N)C(=O)N[C@@H](Cc1c[nH]cn1)C(=O)N[C@@H](CO)C(=O)N[C@@H](C(=O)N1CCC[C@H]1C(=O)N[C@@H](CCN)C(=O)N1CCC[C@H]1C(=O)N[C@@H](CC(=O)O)C(N)=O)C(C)C [pCAP-674, str-RRHSvP(Dab)PD-NH2] (Stearoyl-RRHS[dV]P[Dab]PD-NH2) |  | 36000 | 600 | 210 |  | increase in efficacy relative to pCAP-553 [5]: four-fold increase in efficacy |
| CCCCCCCCCCCCCCCCCCCC(=O)N[C@@H](CCCNC(=N)N)C(=O)N[C@@H](CCCNC(=N)N)C(=O)N[C@@H](Cc1c[nH]cn1)C(=O)N[C@@H](CO)C(=O)N[C@@H](C(=O)N1CCC[C@H]1C(=O)N[C@@H](CCN)C(=O)N1CCC[C@H]1C(=O)N[C@@H](CC(=O)O)C(N)=O)C(C)C [pCAP-706, arc-RRHSvP(Dab)PD-NH2] (Arachidoyl-RRHS[dV]P[Dab]PD-NH2) |  | 15000 | 800 | 260 | 400 |  |
| CCCCCCCCCCCCCCCCCCCCCC(=O)N[C@@H](CCCNC(=N)N)C(=O)N[C@@H](CCCNC(=N)N)C(=O)N[C@@H](Cc1c[nH]cn1)C(=O)N[C@@H](CO)C(=O)N[C@@H](C(=O)N1CCC[C@H]1C(=O)N[C@@H](CCN)C(=O)N1CCC[C@H]1C(=O)N[C@@H](CC(=O)O)C(N)=O)C(C)C [pCAP-707, Beh-RRHSvP(Dab)PD-NH2] (Docosanoyl-RRHS[dV]P[Dab]PD-NH2) |  | 12000 | 3000 | 1500 | 1500 |  |
| CCCCCCCCCCCCCCCCCC(=O)N[C@@H](CCCNC(=N)N)C(=O)N[C@@H](CCCNC(=N)N)C(=O)N[C@@H](Cc1c[nH]cn1)C(=O)N[C@@H](CO)C(=O)N[C@@H](C(=O)N1CCC[C@@H]1C(=O)N[C@@H](CCN)C(=O)N1CCC[C@H]1C(=O)N[C@@H](CC(=O)O)C(N)=O)C(C)C [pCAP-708, str-RRHSvp(Dab)PD-NH2] (Stearoyl-RRHS[dV][dP][Dab]PD-NH2) | 500 | 32000 |  |  |  | activity in viability assays compared with other peptides (in words) [6]: consistently modestly improved activity over pCAP-674; IC50 [6]: 120 to 1300 nM; activity in viability assays compared with other peptides (in words) ([6]; listed as 708): highest activity |
| CCCCCCCCCCCCCCCCCC(=O)N[C@@H](CCCNC(=N)N)C(=O)N[C@@H](CCCNC(=N)N)C(=O)N[C@@H](Cc1c[nH]cn1)C(=O)N[C@@H](CO)C(=O)N[C@@H](C(=O)N1[C@H](C(=O)N[C@@H](CCN)C(=O)N2CCC[C@H]2C(=O)N[C@@H](CC(=O)O)C(N)=O)C[C@@H]2CCCC[C@@H]21)C(C)C [pCAP-711, str-RRHSv(Oic)(Dab)PD] (Stearoyl-RRHS[dV][Oic][Dab]PD-NH2; N-terminus and C-terminus assumed) |  | > 40000 | 3000 | 1600 | 2600 |  |
| CCCCCCCCCCCCCCCCCC(=O)N[C@@H](CCCNC(=N)N)C(=O)N[C@@H](CCCNC(=N)N)C(=O)N[C@@H](Cc1c[nH]cn1)C(=O)N[C@@H](CO)C(=O)N[C@@H](C(=O)N1Cc2ccccc2C[C@H]1C(=O)N[C@@H](CCN)C(=O)N1CCC[C@H]1C(=O)N[C@@H](CC(=O)O)C(N)=O)C(C)C [pCAP-712, str-RRHSv(Tic)(Dab)PD-NH2] (Stearoyl-RRHS[dV][Tic][Dab]PD-NH2) | 1000 |  | 1500 | 1200 | 600 | activity in viability assays compared with other peptides (in words) [6]: highest activity |
| CCCCCCCCCCCCCCCCCC(=O)N[C@@H](CCCNC(=N)N)C(=O)N[C@@H](CCCNC(=N)N)C(=O)N[C@@H](Cc1c[nH]cn1)C(=O)N[C@@H](CO)C(=O)N[C@H]1CCCCNC(=O)[C@H](CC(=O)O)NC(=O)[C@@H]2CCCN2C(=O)[C@H](CCN)NC(=O)[C@@H]2CCCN2C1=O [pCAP-713, str-RRHSKP(Dab)PD-Cyc] (Stearoyl-RRHSKP[Dab]PD; lactam 5-C) | 300 |  |  |  |  | IC50 [7]: 1050 nM; activity in viability assays compared with other peptides (in words) [6]: highest activity; IC50 [6]: 100 to 1000 nM; increase in activity over pCAP-674 ([6]; FIGS. 18-20): 1.5-3 folds; increase in activity over the original pCAP-553 ([6]; FIGS. 18-20): 4-10 folds |
| CCCCCCCCCCCCCCCCCC(=O)N[C@@H](CCCNC(=N)N)C(=O)N[C@@H](CCCNC(=N)N)C(=O)N[C@H]1CCCCNC(=O)[C@H](CC(=O)O)NC(=O)[C@@H]2CCCN2C(=O)[C@H](CCN)NC(=O)[C@@H]2CCCN2C(=O)[C@@H](C(C)C)NC(=O)[C@H](CO)NC1=O [pCAP-714, str-RRKSvP(Dab)PD-Cyc] (Stearoyl-RRKS[dV]P[Dab]PD; lactam 3-C) |  | > 40000 | 1090 | 800 | 570 |  |
| CCCCCCCCCCCCCCCCCC(=O)N[C@@H](CCCNC(=N)N)C(=O)N[C@@H](CCCNC(=N)N)C(=O)N[C@H]1CCCCNC(=O)[C@H](CC(=O)O)NC(=O)[C@@H]2CCCN2C(=O)[C@H](CCN)NC(=O)[C@@H]2CCCN2C(=O)[C@@H](C(C)C)NC(=O)[C@H](CO)NC(=O)[C@H](Cc2c[nH]cn2)NC1=O [pCAP-715, str-RRKHSvP(Dab)PD-Cyc] (Stearoyl-RRKHS[dV]P[Dab]PD; lactam 3-C) |  | > 40000 | 540 | 250 | 480 |  |
| CCCCCCCCCCCCCCCCCC(=O)N[C@@H](CCCNC(=N)N)C(=O)N[C@@H](CCCNC(=N)N)C(=O)N[C@@H](Cc1c[nH]cn1)C(=O)N[C@@H](CO)C(=O)N[C@@H](C(=O)N1CCC[C@H]1C(=O)N[C@@H](CCN)C(=O)N1CCC[C@H]1C(=O)N[C@@H](CC(=O)O)C(N)=O)C(C)C [pCAP-718, str-RRHSvP(Dab)PD-NH2 ion ex] (Stearoyl-RRHS[dV]P[Dab]PD-NH2) |  | > 40000 |  | 720 | 370 | IC50 [7]: 2210 nM |
| CCCCCCCCCCCCCCCCCC(=O)N[C@@H](CCCNC(=N)N)C(=O)N[C@@H](CCCNC(=N)N)C(=O)N[C@@H](Cc1c[nH]cn1)C(=O)N[C@@H](CO)C(=O)N[C@H](CCCCN)C(=O)N1Cc2ccccc2C[C@@H]1C(=O)N[C@@H](CCN)C(=O)N1CCC[C@H]1C(=O)N[C@@H](CC(=O)O)C(N)=O [pCAP-719, str-RRHSk(tic)(Dab)PD-NH2] (Stearoyl-RRHS[dK][dTic][Dab]PD-NH2) |  | 29000 |  | 570 | 460 | IC50 [7]: 2180 nM |
| CCCCCCCCCCCCCCCCCC(=O)N[C@@H](CCCNC(=N)N)C(=O)N[C@@H](CCCNC(=N)N)C(=O)N[C@@H](Cc1c[nH]cn1)C(=O)N[C@@H](CO)C(=O)N[C@@H](C(=O)N1CCC[C@@H]1C(=O)N[C@@H](CCN)C(=O)N1CCC[C@H]1C(=O)N[C@H](CC(=O)O)C(=O)NCC(=O)N[C@@H](CCCNC(=N)N)C(=O)O)C(C)C [pCAP-721, str-RRHSvp(Dab)PdGR] (Stearoyl-RRHS[dV][dP][Dab]P[dD]GR-OH; C-terminus assumed) | 300 |  | 1200 | 800 | 300 | activity in viability assays compared with other peptides (in words) [6]: comparable activity to pCAP-717 |
| CCCCCCCCCCCCCCCCCC(=O)N[C@@H](CCCNC(=N)N)C(=O)N[C@@H](CC(=O)O)C(=O)N1CCC[C@H]1C(=O)N[C@@H](Cc1c[nH]cn1)C(=O)N[C@@H](C(=O)N[C@@H](CO)C(=O)N1CCC[C@H]1C(=O)N[C@@H](CCCNC(=N)N)C(=O)N[C@@H](CCN)C(N)=O)C(C)C [pCAP-723, str-RDPHvSPR(Dab)-NH2, reference compound] (Stearoyl-RDPH[dV]SPR[Dab]-NH2) |  | > 40000 |  | > 40000 | > 40000 | IC50 [7]: > 40000 nM |
| pam-RRHSvP(Dab)PD-NH2 (Palmitoyl-RRHS[dV]P[Dab]PD-NH2) [pCAP-673, pam—Palmitic] |  |  |  |  |  | increase in efficacy relative to pCAP-553 [5]: two-fold increase in efficacy |
